The target of test [1] is T1, NKCC1 (Homo sapiens, UniProt P55011).
T1 construct: expressed in transfected cells; host or cells: HEK293
T1 sequence (P55011 1-1212): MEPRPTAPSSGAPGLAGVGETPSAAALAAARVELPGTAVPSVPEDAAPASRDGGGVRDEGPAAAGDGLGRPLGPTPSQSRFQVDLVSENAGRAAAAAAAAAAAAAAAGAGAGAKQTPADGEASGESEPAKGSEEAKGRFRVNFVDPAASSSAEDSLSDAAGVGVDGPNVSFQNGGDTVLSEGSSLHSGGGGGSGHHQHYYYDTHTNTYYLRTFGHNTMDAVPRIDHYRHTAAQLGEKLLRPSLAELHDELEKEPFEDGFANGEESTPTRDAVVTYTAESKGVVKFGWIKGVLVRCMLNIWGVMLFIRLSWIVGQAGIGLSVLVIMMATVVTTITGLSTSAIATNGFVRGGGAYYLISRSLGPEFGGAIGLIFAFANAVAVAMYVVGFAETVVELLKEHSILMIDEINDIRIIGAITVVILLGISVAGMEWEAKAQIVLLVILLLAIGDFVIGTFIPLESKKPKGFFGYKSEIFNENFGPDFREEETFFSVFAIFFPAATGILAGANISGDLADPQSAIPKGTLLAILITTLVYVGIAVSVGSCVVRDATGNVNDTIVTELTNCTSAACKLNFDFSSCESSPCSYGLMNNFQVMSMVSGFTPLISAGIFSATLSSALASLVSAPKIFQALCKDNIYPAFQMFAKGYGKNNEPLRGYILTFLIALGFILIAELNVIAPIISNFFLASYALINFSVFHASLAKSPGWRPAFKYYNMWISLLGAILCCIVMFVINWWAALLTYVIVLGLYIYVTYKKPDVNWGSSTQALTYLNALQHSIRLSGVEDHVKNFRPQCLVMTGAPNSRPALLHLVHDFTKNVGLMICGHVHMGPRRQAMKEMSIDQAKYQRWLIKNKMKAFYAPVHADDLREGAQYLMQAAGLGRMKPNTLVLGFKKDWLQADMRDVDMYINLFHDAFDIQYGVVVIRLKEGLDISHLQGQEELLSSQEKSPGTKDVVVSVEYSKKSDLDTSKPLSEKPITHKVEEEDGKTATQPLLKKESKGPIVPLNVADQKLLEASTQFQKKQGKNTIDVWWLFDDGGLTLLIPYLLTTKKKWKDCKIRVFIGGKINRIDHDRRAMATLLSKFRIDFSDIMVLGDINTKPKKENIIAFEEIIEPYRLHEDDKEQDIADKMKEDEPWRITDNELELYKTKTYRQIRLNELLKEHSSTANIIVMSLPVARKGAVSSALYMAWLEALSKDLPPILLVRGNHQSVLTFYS
The test can be described thus: Chloride kinetic assay (Cl-sensitive YFP) in NKCC1-transfected HEK293 cells. Type of test: cell-based. As to conditions: 10 μM, NKCC1-transfected HEK293; for inhibition at 10 µM: read-out: NKCC1 Inhibition % 10 μM HEK Chloride YFP assay. As to the method:
FIG. 1: In vitro testing of the NKCC1 inhibitors in the chloride kinetic assay a) Example traces obtained in the chloride kinetic assay on HEK cells transfected with the YFP (mock) or with YFP and NKCC1. The arrow indicates the addition of NaCl (final concentration 74 mM) used to initiate the flux assay. b) Quantification of the effect of bumetanide (10 μM and 100 μM) or furosemide (10 μM and 100 μM) in the chloride kinetic assay on mock or NKCC1-transfected HEK293 cells. Data represents mean±sem from 5 independent experiments. c) Quantification of the effect of bumetanide and furosemide and 2 selected compounds (3.8, 3.17) in the chloride kinetic assay on NKCC1-transfected HEK293 cells. Data represents mean±sem from 5 independent experiments, and they are represented as % of the controls. *P<0.05, **P<0.01, ***P<0.001 Kruskal-Wallis Anova (Dunn's Post hoc Test); ###P<0.001 two-tailed unpaired Student t-test.
To screen in vitro the compounds efficiency in blocking NKCC1, a functional NKCC1 transporter assay was performed by measuring variation of Cl^− ion concentration in the cell through a Cl^− sensitive membrane-tagged yellow fluorescent protein (mbYFPQS, Addgene). mbYFPQS fluorescence is inversely dependent on the concentration of Cl^− inside the cell thus allowing an indirect estimation of the Cl^− transporter activity. In particular, HEK293 cells were transfected with NKCC1 or mock construct (control) together with the Cl^− sensitive YFP. After 2 DIV, the cells were treated with bumetanide and furosemide (as positive controls) or with each of the tested compounds of the invention in a Cl^− free medium. After 30 min, the inhibitory activity of the compounds was tested by monitoring fluorescence upon application of NaCl (FIG. 1a). Transported by NKCC1, Cl binds the YFP, leading to a fluorescence decrease. […] With the Cl kinetic assay, the NKCC1 inhibitory activity of the selected compounds was tested (FIG. 1c).

Test [2] has as its system NKCC1. The test can be described thus: Calcium kinetic assay in primary cultures of immature hippocampal neurons. Type of test: cell-based. As to conditions: 10 μM, immature neurons 3 DIV. The method, then: FIG. 2: In vitro testing of the NKCC1 inhibitors in a calcium kinetic assay. a) Example traces of fluorescence levels upon application of GABA (100 μM) and KCl (90 mM) used to trigger calcium influx in primary neuronal cultures treated after 3 days in culture (3 DIV) with vehicle, bumetanide, furosemide and compounds 3.8, 3.13 and 3.17 in the calcium kinetic assay. b) Quantification of the average fluorescence increase upon GABA application normalized to the increase upon KCl application in neurons treated with bumetanide, furosemide and 3 exemplary compounds (3.8, 3.13, 3.17) (10 μM, 100 μM). Data represents mean±sem from 5 independent experiments, and they are presented as % of the control. *P<0.05, **P<0.01, ***P<0.001 Kruskal-Wallis Anova (Dunn's Post hoc Test).
Next, the compounds of the invention were tested for their ability to revert the depolarizing GABAergic signaling in immature neurons. This effect was indirectly measured as calcium influx into the cells with an in vitro calcium kinetic assay in primary cultures of hippocampal neurons. The calcium kinetic assay exploits the physiological, endogenous, high expression of NKCC1 in immature neurons, which causes depolarizing actions of GABA and can activate voltage-gated Ca^2+ channels. Thus, in immature neurons, a compound that blocks NKCC1 is predicted to inhibit Ca^2+ responses upon GABA application. Immature neurons were cultured for 3 days in vitro (3 DIV) and loaded for 15 min with a calcium-sensitive dye (Fluo4). Then, the neurons were treated with bumetanide and furosemide (as positive controls) or with each of the selected compounds for 15 min. As a functional readout, the fluorescence level was monitored in these cultures before and after application of GABA (100 μM, for 20 sec). To test for neuronal viability at the end of the experiment, KCl was applied (90 mM, for 40 sec), which strongly depolarizes neurons, causing high activation of voltage-gated Ca^2+ channels in live cells. To quantify how bumetanide, furosemide, and selected compounds influenced NKCC1 inhibition, the fluorescence values were normalized upon GABA application to the fluorescence levels upon KCl application in treated neurons.

SMILES strings stand for the structures.

Regarding `O=C(O)c1ccc(NCCCCCCCC(F)(F)F)c(S(=O)(=O)N2CCCCC2)c1` [Compound 5.6, 3-(1-piperidylsulfonyl)-4-(8,8,8-trifluorooctylamino) benzoic acid], the “NKCC1 Inhibition % 10 μM HEK Chloride YFP assay” value at NKCC1 [1] (Table 1) and at NKCC1 [1] (Table 2) was “Inactive” each time. Moreover, the “NKCC1 Inhibition % 10 μM Neurons Calcium kinetic assay” value in the test with NKCC1 [2] (Table 1) and in the test on NKCC1 [2] (Table 2) was 55% in each case.

On to `O=C(O)c1ccc(NCCCCCCCC(F)(F)F)c(S(=O)(=O)N2CCOCC2)c1` [Compound 5.7, 3-morpholinosulfonyl-4-(8,8,8-trifluorooctylamino) benzoic acid], for which, at NKCC1 [1] (Table 1), the inhibition at 10 µM turned out to be 13%. For the same compound, the “NKCC1 Inhibition % 10 μM Neurons Calcium kinetic assay” value in the test on NKCC1 [2] (Table 1) and in the test on NKCC1 [2] (Table 2) was 24% throughout.

With `NS(=O)(=O)c1cc(C(=O)O)c(O)cc1NCCCCCCCC(F)(F)F` [Compound 7.4, 2-hydroxy-5-sulfamoyl-4-(8,8,8-trifluorooctylamino) benzoic acid], the inhibition at 10 µM on NKCC1 [1] (Table 1) is 30%. In the test on NKCC1 [2] (Table 1), the “NKCC1 Inhibition % 10 μM Neurons Calcium kinetic assay” value is 24%.

By inhibition is commonly meant the relative decrease from the control value, in per cent.

The record behind these values is patent publication US20220184008A1, “MODULATORS OF INTRACELLULAR CHLORIDE CONCENTRATION” (FONDAZIONE ISTITUTO ITALIANO DI TECNOLOGIA, priority 2019, published 2022).
